Assay results published in ChEMBL document CHEMBL4364286, “Structure-Guided Design, Synthesis, and Biological Evaluation of (2-(1H-Indol-3-yl)-1H-imidazol-4-yl)(3,4,5-trimethoxyphenyl) Methanone (ABI-231) Analogues Targeting the Colchicine Binding Site in Tubulin” (J Med Chem, 2019).
Calls of active or inactive are those of the source. The rule behind the calls is not given here.

Assays:
A-375 [1] = assay: Antiproliferative activity against human A375 cells after 72 hrs by MTT assay; format: functional, cell-based; conditions: A-375, 72 h
A-375 [2] = assay: Inhibition of anchorage-dependent colony formation in human A375 cells assessed as decrease in colony number at 5 nM after 12 days by crystal violet-staining based assay relative to control; format: functional; conditions: A-375, 288 h
RPMI-7951 = assay: Antimigratory activity in human RPMI7951 cells assessed as wound closure at 25 nM after 18 hrs by scratch migration assay (reference value: 71.8 +/- 1.8%); format: functional
WM164 = assay: Antiproliferative activity against human WM164 cells after 72 hrs by MTT assay; format: functional, cell-based; conditions: WM164, 72 h
[3] = Resistance index, ratio of IC50 for human DU145-TxR cells to IC50 for human DU145 cells; format: functional
M14 = assay: Antiproliferative activity against human M14 cells after 72 hrs by MTT assay; format: functional, cell-based; conditions: M14, 72 h
[4] = Resistance index, ratio of IC50 for human PC3-TxR cells to IC50 for human PC3 cells; format: functional
[5] = Antiproliferative activity against human DU145-TxR cells; format: functional, cell-based
[6] = Antiproliferative activity against human PC3-TxR cells; format: functional, cell-based
A-375 [7] = assay: Antimigratory activity in human A375 cells assessed as wound closure at 25 nM after 22 hrs by scratch migration assay (reference value: 60.7 +/- 3.5%); format: functional
PC-3 [8] = assay: Antiproliferative activity against human PC3 cells; format: functional, cell-based
A-375 [9] = assay: Antimigratory activity in human A375 cells assessed as wound closure at 5 nM after 22 hrs by scratch migration assay (reference value: 60.7 +/- 3.5%); format: functional
DU-145 = assay: Antiproliferative activity against human DU145 cells; format: functional, cell-based
PC-3 [10] = assay: Antitumor activity against human PC3 cells xenografted in nude mouse assessed as tumor growth inhibition at 15 mg/kg administered every other day for 3 weeks relative to control; format: functional; conditions: PC-3, 504 h, read-out: TGI
A-375 [11] = assay: Antitumor activity against human A375 cells xenografted in nude mouse assessed as tumor growth inhibition at 15 mg/kg, ip administered once daily for 14 days and measured after 20 days by caliper method relative to control; format: functional; conditions: A-375, ip, read-out: TGI
[12] = Antitumor activity against human PC3-TxR cells xenografted in nude mouse assessed as tumor growth inhibition at 15 mg/kg administered every other day for 3 weeks relative to control; format: functional; conditions: 504 h, read-out: TGI
[13] = Antitumor activity against human PC3-TxR cells xenografted in nude mouse assessed as reduction in tumor weight at 15 mg/kg administered every other day for 3 weeks relative to control; format: functional; set-up: scale not given: the % may be the effect or the level left
Tubulin (Homo sapiens) [14] = biological target: T1, Tubulin (Homo sapiens) (UniProt P68371+Q9H4B7+P0DPH7+P68366+Q13509+Q71U36+P04350+Q3ZCM7+P07437+P68363+Q9BQE3+Q6PEY2+Q13885+Q9BVA1+Q9BUF5); assay: Effect on microtubule network in human WM164 cells assessed as formation of dense and aggregated bundles of microtubules at 100 nM after 18 hrs by DAPI staining based fluorescence confocal microscopic method; format: cell-based
Tubulin (Homo sapiens) [15] = biological target: T1, Tubulin (Homo sapiens); assay: Effect on microtubule network in human WM164 cells assessed as induction of polymerization at 100 nM after 18 hrs by DAPI staining based fluorescence confocal microscopic method; format: cell-based
Tubulin (Bos taurus) [16] = biological target: T2, Tubulin (Bos taurus) (UniProt Q6B856+Q862L2+Q862F3); assay: Induction of bovine brain tubulin polymerization at 10 uM measured at time interval of 1 mins for 20 mins by spectrophotometric analysis
[17] = Intrinsic clearance in human liver microsomes in presence of NADPH regenerating system; format: ADME, Microsome; conditions: read-out: CLH
[18] = Half-life in rat liver microsomes pre-incubated for 15 mins followed by addition of NADPH regenerating system by LC-MS analysis; format: ADME, Microsome
Tubulin (Homo sapiens) [19] = biological target: T1, Tubulin (Homo sapiens); assay: Disruption of microtubule network in human WM164 cells assessed as microtubule fragmentation at 100 nM after 18 hrs by DAPI staining based fluorescence confocal microscopic method; format: cell-based
Tubulin (Bos taurus) [20] = biological target: T2, Tubulin (Bos taurus); assay: Inhibition of bovine brain tubulin polymerization at 10 uM measured at time interval of 1 mins for 20 mins by spectrophotometric analysis
[21] = Half-life in CD-1 mouse liver microsomes in presence of NADPH regenerating system measured up to 4 hrs by UPLC-MS analysis; format: ADME, Microsome
[22] = Intrinsic clearance in rat liver microsomes pre-incubated for 15 mins followed by addition of NADPH regenerating system by LC-MS analysis; format: ADME, Microsome; conditions: read-out: CLH
[23] = Half-life in human liver microsomes in presence of NADPH regenerating system; format: ADME, Microsome
[24] = Intrinsic clearance in CD-1 mouse liver microsomes in presence of NADPH regenerating system measured up to 4 hrs by UPLC-MS analysis; format: ADME, Microsome; conditions: read-out: CLH
Tubulin (Homo sapiens) [25] = biological target: T1, Tubulin (Homo sapiens); assay: Disruption of microtubule network in human WM164 cells assessed as microtubule disassembly at 100 nM after 18 hrs by DAPI staining based fluorescence confocal microscopic method; format: cell-based

IC50 (A-375 [1]; read-out: IC50) [nM]	SMILES	IC50 (WM164) [nM]	IC50 (M14) [nM]	further results
	COc1cc2c(c(OC)c1OC)-c1ccc(OC)c(=O)cc1[C@@H](NC(C)=O)CC2 [COLCHICINE]	10.8	16.6	IC50 (A-375 [1]): 14.1 nM; inhibition at 0.005 µM (A-375 [2]): 24.7%; Activity (RPMI-7951): 42.8%; Ratio IC50 [3]: >28; Ratio IC50 [4]: 3.6; IC50 [5]: > 1000 nM; IC50 [6]: 37.4 nM; Activity (A-375 [7]): 20.7%; IC50 (PC-3 [8]): 10.4 nM; Activity (A-375 [9]): 46%; IC50 (DU-145): 35.5 nM
> 1000	COc1cc(C(=O)c2c[nH]c(-c3c[nH]c4ccc(O)cc34)n2)cc(OC)c1OC	> 1000	> 1000	
61.8	COc1cc(C(=O)c2c[nH]c(-c3c[nH]c4ccc(Cl)cc34)n2)cc(OC)c1OC	160	64.9	
13.1	COc1cc(C(=O)c2c[nH]c(-c3c[nH]c4c(C)cccc34)n2)cc(OC)c1OC	61.3	10.8	
> 1000	COc1cc(C(=O)c2c[nH]c(-c3c(-c4ccccc4)[nH]c4ccccc34)n2)cc(OC)c1OC	> 1000	> 1000	
	CC(=O)O[C@H]1C(=O)[C@@]2(C)[C@H]([C@H](OC(=O)c3ccccc3)[C@]3(O)C[C@H](OC(=O)[C@H](O)[C@@H](NC(=O)c4ccccc4)c4ccccc4)C(C)=C1C3(C)C)[C@]1(OC(C)=O)CO[C@@H]1C[C@@H]2O [PACLITAXEL]			inhibition in vivo at 15 mg/kg (PC-3 [10]): 101%; inhibition in vivo at 15 mg/kg (A-375 [11]): 68.6%; IC50 [5]: > 1000 nM; inhibition in vivo at 15 mg/kg [12]: 37.8%; Activity [13]: 34.5%
8.6	COc1cc(C(=O)c2c[nH]c(-c3ccc4[nH]ccc4c3)n2)cc(OC)c1OC	6.1	18.5	
278	COc1cc(C(=O)c2c[nH]c(-c3c[nH]c4ccc(C)cc34)n2)cc(OC)c1OC	552	177	
38.3	COc1cc(C(=O)c2c[nH]c(-c3c[nH]c4c(OC)cccc34)n2)cc(OC)c1OC	115	34.1	
13.8	COc1cc(C(=O)c2c[nH]c(-c3c[nH]c4cccc(Br)c34)n2)cc(OC)c1OC	67.1	10.4	
7.2	COc1cc(C(=O)c2c[nH]c(-c3c[nH]c4cccc(F)c34)n2)cc(OC)c1OC		8.2	
> 1000	COc1cc(C(=O)c2c[nH]c(-c3c[nH]c4cc(O)ccc34)n2)cc(OC)c1OC	> 1000	> 1000	
> 1000	COc1cc(C(=O)c2c[nH]c(-c3c[nH]c4ccc(OCc5ccccc5)cc34)n2)cc(OC)c1OC	> 1000	> 1000	
	CC(=O)O[C@@]12CO[C@@H]1C[C@H](O)[C@@]1(C)C(=O)[C@H](O)C3=C(C)[C@@H](OC(=O)[C@H](O)[C@@H](NC(=O)OC(C)(C)C)c4ccccc4)C[C@@](O)([C@@H](OC(=O)c4ccccc4)[C@H]21)C3(C)C [DOCETAXEL ANHYDROUS]			Ratio IC50 [3]: >3523; IC50 [5]: 352 nM; Activity (Tubulin (Homo sapiens) [14]): Active; Activity (Tubulin (Homo sapiens) [15]): Active; Activity (Tubulin (Bos taurus) [16]): Active
> 1000	COc1cc(C(=O)c2c[nH]c(-c3c[nH]c4cccc(OCc5ccccc5)c34)n2)cc(OC)c1OC	> 1000	> 1000	
793	COc1ccc2c(-c3nc(C(=O)c4cc(OC)c(OC)c(OC)c4)c[nH]3)c[nH]c2c1	> 1000	> 1000	
1.8	COc1cc(C(=O)c2c[nH]c(-c3c[nH]c4cccc(C)c34)n2)cc(OC)c1OC	3.2	1.7	CLint scaled [17]: 3.1 mL/min/kg; half-life [18]: 1.8 h; inhibition at 0.005 µM (A-375 [2]): 59%; Activity (Tubulin (Homo sapiens) [19]): Active; inhibition (Tubulin (Bos taurus) [20]): Active; Activity (RPMI-7951): 35.6%; half-life [21]: 2.42 h; Ratio IC50 [3]: 1.8; CLint scaled [22]: 26 mL/min/kg; Ratio IC50 [4]: 0.8; IC50 [5]: 25.2 nM; half-life [23]: 6.7 h; CLint scaled [24]: 23.6 mL/min/kg; IC50 [6]: 3.9 nM; Activity (A-375 [7]): 25.9%; IC50 (PC-3 [8]): 5.2 nM; Activity (A-375 [9]): 48.5%; IC50 (DU-145): 13.8 nM; Activity (Tubulin (Homo sapiens) [25]): Active
21.1	COc1cc(C(=O)c2c[nH]c(-c3c[nH]c4cc(C)ccc34)n2)cc(OC)c1OC	23.7	21.7	
> 1000	COC(=O)c1ccc2c(-c3nc(C(=O)c4cc(OC)c(OC)c(OC)c4)c[nH]3)c[nH]c2c1	> 1000	> 1000	
> 1000	COc1cc(C(=O)c2c[nH]c(-c3c[nH]c4cc(OCc5ccccc5)ccc34)n2)cc(OC)c1OC	> 1000	> 1000	
17.5	COc1cc(C(=O)c2c[nH]c(-c3c[nH]c4cc(F)ccc34)n2)cc(OC)c1OC	10.3	5.8	
164	COc1cc(C(=O)c2c[nH]c(-c3c[nH]c4ccc(Br)cc34)n2)cc(OC)c1OC	442	104	
> 1000	COc1cc(C(=O)c2c[nH]c(-c3c[nH]c4cccc(OC)c34)n2)cc(OC)c1OC	> 1000	> 1000	
286	COc1cc(C(=O)c2c[nH]c(-c3cccc4cc[nH]c34)n2)cc(OC)c1OC	436	241	
67.8	COc1cc(C(=O)c2c[nH]c(-c3c[nH]c4cc(Br)ccc34)n2)cc(OC)c1OC	55.4	41.2	
8	COc1cc(C(=O)c2c[nH]c(-c3ccc4cc[nH]c4c3)n2)cc(OC)c1OC	3.8	6.1	CLint scaled [17]: 2.73 mL/min/kg; half-life [18]: 15.2 h; half-life [21]: 5.56 h; CLint scaled [22]: 3.1 mL/min/kg; half-life [23]: 7.61 h; CLint scaled [24]: 10.3 mL/min/kg
> 1000	COc1cc(C(=O)c2c[nH]c(-c3c[nH]c4c(OCc5ccccc5)cccc34)n2)cc(OC)c1OC	> 1000	> 1000	
19.2	COc1cc(C(=O)c2c[nH]c(-c3c[nH]c4ccc(F)cc34)n2)cc(OC)c1OC	80.9	18	
